Measured values: publication PMC12668308, “A Novel Antimalarial Agent that Inhibits Protein Synthesis in Plasmodium falciparum” (Angewandte Chemie (International Ed. in English), 2025)
Where two headings read alike, the source gives them in different places.

Test system: NF54/iGP1_RE9H^ulg8 stage V gametocytes
Assay: Dose-response assay on gametocytes, MitoTracker-based readout
Type: cell-based, Plasmodium falciparum
Source text: Compound 31 was also found to be active against the sexual stage of P. falciparum using the MitoTracker‐based readout. This readout is based on quantifying MitoTracker‐based gametocyte viability as recently described.^[ [7] ^] Briefly, high content imaging of MitoTracker‐ and Hoechst‐stained cells and automated image analysis using the MetaXpress software was used to determine the number of viable gametocytes based on mitochondrial activity and cellular shape.
Sexual commitment was induced in the NF54/iGP1_RE9H^ulg8 parasite line as described in ^[18,^52]. Synchronous ring stage cultures at 2-3% parasitemia (8-16 hpi) were grown for 48 hours in a culture medium lacking D-(+)-glucosamine hydrochloride (GlcN) and containing 1.25 µM Shield-1 to induce GDV1-GFP-DD expression. The induction medium was replaced with standard culture medium containing 50 mM N-acetyl-glucosamine (GlcNAc) for six consecutive days.) to selectively kill asexual parasites.^[53^,54^] Gametocytes were maintained in standard culture medium from day 7 onwards. During the first seven days of gametocyte development, the culture medium was exchanged daily and every second day subsequently. Visual inspection of Hemacolor-stained thin blood smears with a 100x immersion oil objective (total magnification = 1000x) was performed to assess gametocytemia.
Dose response assays were performed in biological triplicates, each in technical duplicate, as described in ^[18, ^55]. Synchronous NF54/iGP1_RE9H^ulg8 gametocyte cultures were resuspended at ~2% gametocytemia in an assay medium at 3% haematocrit. […] MitoTracker-based gametocyte viability was quantified using a modified version of published protocols.^[56^,57^] […] After imaging two technical replicates, the results were averaged and normalized to the plateau of sub-lethal compound concentrations using the “first mean in each data set” function and IC50 values were calculated using nonlinear, four parameter (variable slope) curve fitting in GraphPad Prism (version 8.3.0).

In the case of `CN1CCN(Cc2ccc(O)c(NC(=O)c3cccc(Oc4cc(C(F)(F)F)ccn4)c3)c2)CC1` [Compound 31, N-(2-hydroxy-5-((4-methylpiperazin-1-yl)methyl)phenyl)-3-((4-(trifluoromethyl)pyridin-2-yl)oxy)benzamide], the IC50 (Plasmodium falciparum, NF54, 72 h, read-out: IC50 mature (stage V) gametocytes, 72 h exposure, MitoTracker readout, N = 3) is reported as 354 nM, the IC50 (read-out: IC50 mature (stage V) gametocytes, 72 h exposure, MitoTracker readout, N = 3) is reported as < 500 nM and the “fold reduction in activity against the sexual stages compared to the asexual stage” value (stage V gametocytes vs NF54 asexual) is reported as 91 fold.
